Test results published in US20100311671A1, “TRANSDERMAL DELIVERY OF PKC MODULATORY PEPTIDES THROUGH MI[…]” (Kai Pharmaceuticals, priority 2009, published 2010).

Tests used:
[1] = Transdermal delivery of conjugate to microporated rat skin, conjugate level in plasma by sandwich ELISA; type: in vivo, Male CD Hairless rats; settings: rats; for Intact conjugate present in the blood stream as a function of time: after application to microporated skin, blood draws over 2-3 hour period; for Transdermal delivery of the peptide conjugate: applied to microporated skin relative to intact skin, occluded
Experimental: The γV5 peptide RLVLAS (SEQ ID NO: 43) with an […] (Ac) end cap was attached by a GG linker to a TAT carrier peptide (SEQ ID NO: 46) and then the C-terminus was amidated (NH2) to form a conjugate identified as SEQ ID NO: 49. Transdermal delivery of this conjugate was performed as described in Example 1 except that a 1 cm^2 solid polymer microneedle array was used to microporate the skin and an aqueous reservoir patch was used to contact a 10% aqueous formulation of the conjugate with the microporated skin. Results are shown in FIG. 3, where the amount of conjugate in the blood, in ng/mL, is shown as a function of time.

[2] = microporated vs intact rat skin; 30 μm planar skin sections (FIG. 1A)
Excerpt: Male CD Hairless rats were weighed (range: 300-500 grams) and anesthetized by inhaled isoflurane. The rats remained under anesthesia for the duration of the experiment and were sacrificed after the last blood draw. Rats were cannulated at a femoral or jugular vein for blood draws. A derma roller with 1.0 or 1.5 mm microneedles (Moohan Dr. Roller) was rolled across a 1 cm^2 area of skin on the dorsal trunk or waist by passing the roller over the skin 5 times with moderate pressure. Fifty μL of the cPKC inhibitor peptide [sequence] (SEQ ID NO:13) attached to a TAT carrier peptide to form the conjugate peptide identified as SEQ ID NO: 14 at 1% to 10% (10 to 100 mg/mL) was applied to the microporated skin and occluded with a 1 cm^2 piece of saran wrap. […] As a control, rats with intact skin (i.e., rats not subjected to the microneedle array) were also treated with the same peptide conjugate.
To analyze levels of the εPKC inhibitor peptide [sequence] (SEQ ID NO:13) in plasma, both ELISA on planar skin sections and a sandwich ELISA that uses antibodies that recognize different portions of the conjugate (the εPKC inhibitor peptide and the TAT carrier peptide) were employed.

Compound | Intact conjugate present in the blood stream as a function of time [1] | Transdermal delivery of the peptide conjugate [1] | Penetration of the peptide conjugate through the stratum corneum and into the underlying skin [2]
CC[C@H](C)[C@H](NC(=O)[C@@H]1CCCN1C(=O)[C@H](C)NC(=O)[C@H](CC(=O)O)NC(=O)[C@H](Cc1c[nH]cn1)NC(C)=O)C(=O)NCC(=O)N[C@@H](Cc1ccc(O)cc1)C(=O)N[C@@H](CC(=O)O)C(=O)NCCCCCC(=O)N[C@@H](Cc1ccc(O)cc1)C(=O)NCC(=O)N[C@@H](CCCNC(=N)N)C(=O)N[C@@H](CCCCN)C(=O)N[C@@H](CCCCN)C(=O)N[C@@H](CCCNC(=N)N)C(=O)N[C@@H](CCCNC(=N)N)C(=O)N[C@@H](CCC(N)=O)C(=O)N[C@@H](CCCNC(=N)N)C(=O)N[C@@H](CCCNC(=N)N)C(=O)N[C@@H](CCCNC(=N)N)C(N)=O [SEQ ID NO: 19, AC-HDAPIGYD-AHX-YGRKKRRQRRR-NH2] | in an increasing amount with time | enhanced | 
Ac-EAVSLKPTGGYGRKKRRQRRR-NH2 [SEQ ID NO: 14, Ac-EAVSLKPT GG YGRKKRRQRRR-NH2] | in an increasing amount with time | significantly enhanced | increased penetration
